From ChEMBL document CHEMBL5321219, “Selective degradation of cellular BRD3 and BRD4-L promoted by PROTAC molecules in six cancer cell lines” (Eur J Med Chem, 2023)
Calls of active or inactive are those of the source. The rule behind the calls is not given here.

Legend:
[1] = target: T1, Protein cereblon/Bromodomain-containing protein 4 (Homo sapiens) (UniProt O60885+Q96SW2); assay: PROTAC activity at CRBN/BRD4-S in human MM1.S cells assessed as induction of protein degradation at 1 uM measured after 1 to 24 hrs by Western blot analysis; assay type: cell-based; conditions: time 1-24 hrs
T1 sequence (Q96SW2 whole entry, looked up, other chains not shown): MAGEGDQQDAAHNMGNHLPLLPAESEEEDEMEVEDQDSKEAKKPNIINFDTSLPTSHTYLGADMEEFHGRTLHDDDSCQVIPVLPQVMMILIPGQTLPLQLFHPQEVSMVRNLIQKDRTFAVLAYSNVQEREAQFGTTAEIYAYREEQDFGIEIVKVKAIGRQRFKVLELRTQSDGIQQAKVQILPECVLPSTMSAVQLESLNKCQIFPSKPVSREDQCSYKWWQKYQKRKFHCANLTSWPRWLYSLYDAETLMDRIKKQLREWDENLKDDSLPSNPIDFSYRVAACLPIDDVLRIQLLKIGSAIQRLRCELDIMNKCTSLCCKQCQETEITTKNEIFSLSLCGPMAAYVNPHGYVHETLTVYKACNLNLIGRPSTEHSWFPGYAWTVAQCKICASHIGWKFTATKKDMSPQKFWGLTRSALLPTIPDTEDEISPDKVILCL

[2] = target: T1, Protein cereblon/Bromodomain-containing protein 4 (Homo sapiens); assay: PROTAC activity at CRBN/BRD4-L in human MM1.S cells assessed as induction of protein degradation at 30 nM by Western blot analysis; assay type: cell-based; conditions: TDE = time-dependent effect
[3] = target: T1, Protein cereblon/Bromodomain-containing protein 4 (Homo sapiens); assay: In vivo PROTAC activity at CRBN/BRD4-S in SCID mouse xenografted with human MM1.S cells assessed as reduction in BRD4-S protein level in tumor at 1 to 5 mg/kg, iv measured after 6 hrs by Western blot analysis; assay type: functional, organism-based; conditions: dose 1-5 mg/kg
[4] = system: MM1.S; assay: Downregulation of c-Myc expression in human MM1.S cells at 30 nM measured after 1 to 24 hrs by Western blot analysis; assay type: functional, cell-based; conditions: time 1-24 hrs
[5] = target: T1, Protein cereblon/Bromodomain-containing protein 4 (Homo sapiens); assay: In vivo PROTAC activity at CRBN/BRD4-S in SCID mouse xenografted with human MM1.S cells assessed as reduction in BRD4-S protein level in tumor at 5 mg/kg, iv measured after 24 hrs by Western blot analysis; assay type: functional, organism-based
[6] = target: T2, Protein cereblon/Bromodomain-containing protein 3 (Homo sapiens) (UniProt Q15059+Q96SW2); assay: PROTAC activity at CRBN/BRD3 in human MM1.S cells assessed as induction of protein degradation at 1 uM measured after 1 to 24 hrs by Western blot analysis; assay type: cell-based; conditions: time 1-24 hrs
T2 sequence (Q15059 2-726 limits assumed): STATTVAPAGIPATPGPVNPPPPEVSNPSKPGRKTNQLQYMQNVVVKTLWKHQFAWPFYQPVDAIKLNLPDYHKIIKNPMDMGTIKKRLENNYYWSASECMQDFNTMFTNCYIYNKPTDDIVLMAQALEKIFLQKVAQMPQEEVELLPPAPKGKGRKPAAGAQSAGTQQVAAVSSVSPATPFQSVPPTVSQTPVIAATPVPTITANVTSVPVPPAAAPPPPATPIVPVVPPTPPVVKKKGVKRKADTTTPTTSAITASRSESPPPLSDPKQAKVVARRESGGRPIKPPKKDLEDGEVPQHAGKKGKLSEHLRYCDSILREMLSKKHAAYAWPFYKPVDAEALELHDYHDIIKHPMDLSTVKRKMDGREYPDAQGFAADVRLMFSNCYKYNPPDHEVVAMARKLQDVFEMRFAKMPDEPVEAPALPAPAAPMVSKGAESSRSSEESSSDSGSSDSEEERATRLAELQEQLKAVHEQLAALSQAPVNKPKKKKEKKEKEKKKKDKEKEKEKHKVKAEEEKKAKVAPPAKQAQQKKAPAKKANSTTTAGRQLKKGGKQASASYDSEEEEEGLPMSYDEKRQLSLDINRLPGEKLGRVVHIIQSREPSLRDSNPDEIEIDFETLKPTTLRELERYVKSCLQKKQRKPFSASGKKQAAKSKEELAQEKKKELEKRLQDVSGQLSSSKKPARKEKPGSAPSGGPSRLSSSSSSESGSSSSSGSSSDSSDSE
T2 sequence (Q96SW2 whole entry partner): as the sequence (Q96SW2 whole entry, looked up, other chains not shown) above

[7] = target: T2, Protein cereblon/Bromodomain-containing protein 3 (Homo sapiens); assay: In vivo PROTAC activity at CRBN/BRD3 in SCID mouse xenografted with human MM1.S cells assessed as reduction in BRD3 protein level in tumor at 1 to 5 mg/kg, iv measured after 6 hrs by Western blot analysis; assay type: functional, organism-based; conditions: dose 1-5 mg/kg
[8] = Tmax in C57 mouse at 3 mg/kg, po measured upto 24 hrs by LC-MS/MS analysis; assay type: ADME, organism-based; conditions: in vivo
[9] = Clearance in C57 mouse at 3 mg/kg, iv measured upto 24 hrs by LC-MS/MS analysis; assay type: ADME, organism-based; conditions: in vivo
[10] = target: T2, Protein cereblon/Bromodomain-containing protein 3 (Homo sapiens); assay: PROTAC activity at CRBN/BRD3 in human MM1.S cells assessed as induction of protein degradation at 30 nM by Western blot analysis; assay type: cell-based; conditions: TDE = time-dependent effect
[11] = target: T1, Protein cereblon/Bromodomain-containing protein 4 (Homo sapiens); assay: PROTAC activity at CRBN/BRD4-L in human MM1.S cells assessed as induction of protein degradation at 1 uM measured after 1 to 24 hrs by Western blot analysis; assay type: cell-based; conditions: time 1-24 hrs
[12] = Half life in C57 mouse at 3 mg/kg, iv measured upto 24 hrs by LC-MS/MS analysis; assay type: ADME, organism-based; conditions: in vivo
[13] = target: T1, Protein cereblon/Bromodomain-containing protein 4 (Homo sapiens); assay: In vivo PROTAC activity at CRBN/BRD4-L in SCID mouse xenografted with human MM1.S cells assessed as reduction in BRD4-L protein level in tumor at 1 to 5 mg/kg, iv measured after 6 hrs by Western blot analysis; assay type: functional, organism-based; conditions: dose 1-5 mg/kg
[14] = target: T3, Protein cereblon/Bromodomain-containing protein 2 (Homo sapiens) (UniProt P25440+Q96SW2); assay: In vivo PROTAC activity at CRBN/BRD2 in SCID mouse xenografted with human MM1.S cells assessed as reduction in BRD2 protein level in tumor at 5 mg/kg, iv measured after 24 hrs by Western blot analysis; assay type: functional, organism-based
T3 sequence (P25440 whole entry, looked up): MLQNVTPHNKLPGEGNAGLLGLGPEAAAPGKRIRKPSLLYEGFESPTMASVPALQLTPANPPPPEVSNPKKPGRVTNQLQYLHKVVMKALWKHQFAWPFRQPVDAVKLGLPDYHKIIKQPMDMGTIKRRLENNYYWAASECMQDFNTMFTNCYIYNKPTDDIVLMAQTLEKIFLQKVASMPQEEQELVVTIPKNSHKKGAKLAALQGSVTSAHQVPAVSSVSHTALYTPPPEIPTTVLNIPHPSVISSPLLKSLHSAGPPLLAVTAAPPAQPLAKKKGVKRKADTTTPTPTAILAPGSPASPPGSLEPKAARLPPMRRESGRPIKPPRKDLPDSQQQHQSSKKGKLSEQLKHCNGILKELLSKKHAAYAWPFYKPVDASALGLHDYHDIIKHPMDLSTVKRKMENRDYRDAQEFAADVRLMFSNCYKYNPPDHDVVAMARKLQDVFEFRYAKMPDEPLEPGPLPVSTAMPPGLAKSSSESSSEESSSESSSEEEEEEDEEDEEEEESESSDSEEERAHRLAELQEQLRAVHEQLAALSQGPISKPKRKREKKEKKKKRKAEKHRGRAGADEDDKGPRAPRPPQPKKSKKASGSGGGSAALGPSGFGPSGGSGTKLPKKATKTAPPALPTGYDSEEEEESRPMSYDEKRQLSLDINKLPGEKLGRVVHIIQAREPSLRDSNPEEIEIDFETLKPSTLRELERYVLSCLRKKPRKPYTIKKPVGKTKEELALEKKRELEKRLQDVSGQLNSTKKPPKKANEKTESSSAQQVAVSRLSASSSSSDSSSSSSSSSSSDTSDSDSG
T3 sequence (Q96SW2 whole entry, looked up): as the sequence (Q96SW2 whole entry, looked up, other chains not shown) above

[15] = system: MM1.S; assay: Antitumor activity against human MM1.S cells xenografted in SCID mouse assessed as tumor growth inhibition at 5 mg/kg, iv administered once daily via tail vein for 8 consecutive days and measured twice a week relative to control; assay type: functional; conditions: 192 h, time 8 day, read-out: TGI
[16] = target: T4, Bromodomain-containing protein 3 (Homo sapiens, UniProt Q15059); assay: Binding affinity to recombinant human BRD3 BD2 (306 to 417 residues) assessed as inhibition constant by fluorescence polarization binding assay
T4 sequence (Q15059 whole entry, the tested form may be a part): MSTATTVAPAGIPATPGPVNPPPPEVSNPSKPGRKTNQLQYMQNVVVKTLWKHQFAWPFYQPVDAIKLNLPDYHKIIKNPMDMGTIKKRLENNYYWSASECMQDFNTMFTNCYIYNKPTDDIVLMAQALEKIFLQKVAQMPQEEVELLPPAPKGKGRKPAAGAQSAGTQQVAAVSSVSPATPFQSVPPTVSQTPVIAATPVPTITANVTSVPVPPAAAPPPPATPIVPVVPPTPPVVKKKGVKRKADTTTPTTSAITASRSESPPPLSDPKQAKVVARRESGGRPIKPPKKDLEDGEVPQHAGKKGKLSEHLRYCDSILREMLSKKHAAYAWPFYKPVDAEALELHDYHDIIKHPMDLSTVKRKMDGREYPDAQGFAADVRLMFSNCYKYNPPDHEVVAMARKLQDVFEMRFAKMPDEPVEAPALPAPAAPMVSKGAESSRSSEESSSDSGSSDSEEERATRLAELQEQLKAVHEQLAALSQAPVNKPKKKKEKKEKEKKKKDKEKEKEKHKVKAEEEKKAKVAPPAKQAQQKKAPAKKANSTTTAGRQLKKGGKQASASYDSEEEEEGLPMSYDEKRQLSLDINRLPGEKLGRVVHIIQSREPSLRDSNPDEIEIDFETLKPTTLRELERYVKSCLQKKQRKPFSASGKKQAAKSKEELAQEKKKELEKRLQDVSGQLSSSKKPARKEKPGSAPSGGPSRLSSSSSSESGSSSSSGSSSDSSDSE

[17] = AUC (0 to t) in C57 mouse at 3 mg/kg, iv measured upto 24 hrs by LC-MS/MS analysis; assay type: ADME, organism-based; set-up: dose 3 mg/kg, time < 24 hrs, route iv; conditions: in vivo
[18] = Oral bioavailability in C57 mouse at 3 mg/kg measured upto 24 hrs by LC-MS/MS analysis; assay type: ADME, organism-based; conditions: in vivo
[19] = target: T2, Protein cereblon/Bromodomain-containing protein 3 (Homo sapiens); assay: In vivo PROTAC activity at CRBN/BRD3 in SCID mouse xenografted with human MM1.S cells assessed as reduction in BRD3 protein level in tumor at 5 mg/kg, iv measured after 24 hrs by Western blot analysis; assay type: functional, organism-based
[20] = Cmax in C57 mouse at 3 mg/kg, iv measured upto 24 hrs by LC-MS/MS analysis; assay type: ADME, organism-based; set-up: dose 3 mg/kg, time < 24 hrs, route iv; conditions: in vivo
[21] = Clearance in C57 mouse at 3 mg/kg, po measured upto 24 hrs by LC-MS/MS analysis; assay type: ADME, organism-based; conditions: in vivo
[22] = Cmax in C57 mouse at 3 mg/kg, po measured upto 24 hrs by LC-MS/MS analysis; assay type: ADME, organism-based; set-up: dose 3 mg/kg, time < 24 hrs, route po; conditions: in vivo
[23] = target: T3, Protein cereblon/Bromodomain-containing protein 2 (Homo sapiens); assay: PROTAC activity at CRBN/BRD2 in human MM1.S cells assessed as induction of protein degradation at 1 uM measured after 1 to 24 hrs by Western blot analysis; assay type: cell-based; conditions: time 1-24 hrs
[24] = target: T1, Protein cereblon/Bromodomain-containing protein 4 (Homo sapiens); assay: In vivo PROTAC activity at CRBN/BRD4-L in SCID mouse xenografted with human MM1.S cells assessed as reduction in BRD4-L protein level in tumor at 5 mg/kg, iv measured after 24 hrs by Western blot analysis; assay type: functional, organism-based
[25] = target: T3, Protein cereblon/Bromodomain-containing protein 2 (Homo sapiens); assay: In vivo PROTAC activity at CRBN/BRD2 in SCID mouse xenografted with human MM1.S cells assessed as reduction in BRD2 protein level in tumor at 1 to 5 mg/kg, iv measured after 6 hrs by Western blot analysis; assay type: functional, organism-based; conditions: dose 1-5 mg/kg
[26] = system: MM1.S; assay: Induction of cell cycle arrest in human MM1.S cells assessed as accumulation of cells at G1 phase incubated for 24 hrs by flow cytometry analysis; assay type: functional, cell-based; conditions: dose 1-300 nM
[27] = system: MV4-11; assay: Antiproliferative activity against human MV4-11 cells assessed as cell growth inhibition measured after 3 days by CellTitre-Glo assay; assay type: functional, cell-based; conditions: MV4-11, 72 h
[28] = Toxicity in SCID mouse xenografted with human MM1.S cells assessed as loss of body weight at 5 mg/kg, iv administered once daily via tail vein for 8 consecutive days and measured twice a week; assay type: organism-based; conditions: in vivo, 192 h, time 8 day
[29] = AUC (0 to t) in C57 mouse at 3 mg/kg, po measured upto 24 hrs by LC-MS/MS analysis; assay type: ADME, organism-based; set-up: time < 24 hrs, dose 3 mg/kg, route po; conditions: in vivo
[30] = Tmax in C57 mouse at 3 mg/kg, iv measured upto 24 hrs by LC-MS/MS analysis; assay type: ADME, organism-based; conditions: in vivo
[31] = target: T2, Protein cereblon/Bromodomain-containing protein 3 (Homo sapiens); assay: In vivo PROTAC activity at CRBN/BRD3 in SCID mouse xenografted with human MM1.S cells assessed as reduction in BRD3 protein level in tumor at 1 mg/kg, iv measured after 24 hrs by Western blot analysis; assay type: functional, organism-based
[32] = target: T4, Bromodomain-containing protein 3; assay: Binding affinity to recombinant human BRD3 BD1 (24 to 144 residues) assessed as inhibition constant by fluorescence polarization binding assay
[33] = Toxicity in SCID mouse xenografted with human MM1.S cells assessed as effect on body weight at 1 mg/kg, iv administered once daily via tail vein for 14 consecutive days and measured twice a week; assay type: organism-based; conditions: in vivo, 336 h, time 14 day
[34] = system: MM1.S; assay: Antiproliferative activity against human MM1.S cells assessed as cell growth inhibition measured after 4 days by CellTitre-Glo assay; assay type: functional, cell-based; conditions: 96 h
[35] = system: MM1.S; assay: Downregulation of c-Myc protein expression in human MM1.S cells at 0.1 to 30 nM measured after 24 hrs by Western blot analysis; assay type: functional, cell-based; conditions: dose 0.1-30 nM
[36] = system: MM1.S; assay: Antitumor activity against human MM1.S cells xenografted in SCID mouse assessed as tumor growth inhibition at 1 mg/kg, iv administered once daily via tail vein for 14 consecutive days and measured twice a week relative to control; assay type: functional; conditions: 336 h, time 14 day, read-out: TGI

- Activity [1]: inactive
- Activity [2]: Tde
- Activity [3]: inactive
- Activity [5]: inactive
- Activity [6]: Active
- Activity [7]: Active
- Tmax [8]: 24 min
- clearance [9]: 1.02 L/h/kg
- Activity [10]: Tde
- Activity [11]: Active
- half-life [12]: 30 min
- Activity [13]: Active
- Activity [14]: inactive
- Ki [16]: 0.0028 µM
- AUCt [17]: 2.961 µg·h/mL
- F [18]: 2.14%
- Activity [19]: Active
- Cmax [20]: 7.41 µg/mL
- CL/F [21]: 74.1 L/h/kg
- Cmax [22]: 0.051 µg/mL
- Activity [23]: Active
- Activity [24]: inactive
- Activity [25]: inactive
- IC50 [27]: 0.00746 µM
- AUCt [29]: 0.026 µg·h/mL
- Tmax [30]: 6 min
- Activity [31]: inactive
- Ki [32]: 0.0169 µM
- IC50 [34]: 0.0854 µM
SMILES: Cc1nnc2n1-c1ccc(-c3ccc(CN(C)CCCCc4cccc5c4CN(C4CCC(=O)NC4=O)C5=O)cc3)cc1C(Nc1ccc(Cl)cc1)CC2 (stereo unspecified)
- Activity [4]: Active
- inhibition in vivo at 5 mg/kg [15]: 64%
- Activity [26]: Dose-Dependent Effect
- Activity [28]: Toxic
- Activity [33]: Non-Toxic
- Activity [35]: Active
- inhibition in vivo at 1 mg/kg [36]: 40%
